The target in data set [1] is T1, human EAAT3 (Homo sapiens, UniProt P43005).
T1 construct: expressed in transfected cells
T1 sequence (P43005 1-524): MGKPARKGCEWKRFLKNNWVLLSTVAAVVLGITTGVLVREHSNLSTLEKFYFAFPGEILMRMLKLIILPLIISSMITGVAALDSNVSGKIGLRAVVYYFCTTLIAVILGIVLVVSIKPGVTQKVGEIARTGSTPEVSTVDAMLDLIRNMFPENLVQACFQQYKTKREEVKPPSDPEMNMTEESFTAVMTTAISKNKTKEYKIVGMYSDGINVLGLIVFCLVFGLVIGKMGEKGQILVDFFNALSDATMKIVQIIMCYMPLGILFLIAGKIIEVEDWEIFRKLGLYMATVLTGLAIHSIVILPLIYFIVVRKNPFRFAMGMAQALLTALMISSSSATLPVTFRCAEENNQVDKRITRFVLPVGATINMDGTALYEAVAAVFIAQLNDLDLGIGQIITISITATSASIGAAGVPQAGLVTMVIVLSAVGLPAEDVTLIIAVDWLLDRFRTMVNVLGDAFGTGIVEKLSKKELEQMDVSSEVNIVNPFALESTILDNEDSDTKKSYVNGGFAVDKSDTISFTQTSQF
The data set can be described thus: FLIPR Membrane Potential (FMP) assay. The class given is cell-based. As to conditions: HEK-293 cells stably expressing human EAAT3; L-glutamate as agonist at 80% of maximum response; antagonist applied 15 min before; Kb by Cheng-Prusoff from IC50. As to the method: The FLIPR Membrane Potential (FMP) Assay
HEK-293 cells stably expressing human EAAT3 were seeded at 55 000 cells/well in growth medium (DMEM glutamate free (Invitrogen 11960-044), 1% Pen Strep (10 ml/l GIBCO BRL N^o 15140-023), 10% FCS non dialysed heat inactivated, 5 mg/l puromycin) in poly-D-lysine treated 96-well black microtiter plates with clear-bottom. After 24 h, the growth medium was removed and 100 μl/well of Krebs buffer (140 mM NaCl, 4.7 mM KCl, 2.5 mM CaCl2, 1.2 mM MgCl2, 11 mM HEPES, 10 mM D-glucose, pH=7.4) added. The cells were then loaded by adding 100 μl/well FMP assay dye (FLIPR Membrane Potential assay reagent, Molecular Devices). The 96-well plates were then incubated at 37° C. for 1 h. The depolarization of the cells will cause more dye to enter in the cells, where it will bind to intracellular proteins and lipids and cause an increase in the fluorescence signal. Antagonist potency at human EAAT3 was determined by using L-glutamate as agonist at a concentration which gives 80% of the maximum response. The antagonists were applied 15 min before the application of the agonist L-glutamate. The assays were performed at room temperature and measurements done by using a Fluorometric Imaging Plate Reader (FLIPR, Molecular Devices) and filter #2. Responses were measured as peak increase in fluorescence minus basal (i.e. fluorescence without addition of L-glutamate). Kb was determined using the Cheng-Prusoff equation Kb=IC50/[1+(A/EC50)], where IC50 is the concentration of the antagonist producing 50% inhibition, A is the concentration of the agonist against which the IC50 is being determined ([…]) and EC50 is the concentration of the agonist producing […].

Broadly, the Kb is the affinity of an antagonist, worked out from how it opposes an agonist. A higher Kb goes with lower antagonist affinity. For orientation: melting point means the temperature of the solid-liquid transition.

`CC(C)(C)NC(=O)c1cc(-c2ccccc2)cc(-c2ccnn2C(C)(C)C)c1` [Example 28, N-tert-Butyl-3-(2-tert-butyl-pyrazol-3-yl)-5-phenyl-benzamide] came in with a melting point of 199.5 °C. For the same molecule, in data set [1], the Kb was 0.47 µM.

Molecule `Cc1ccc(-c2cc(C(=O)NC(C)(C)C)cc(-c3ccnn3C(C)(C)C)c2)cc1F` [Example 29, N-tert-Butyl-3-(2-tert-butyl-pyrazol-3-yl)-5-(3-fluoro-4-methyl-phenyl)-benzamide] displayed a melting point of 202 °C. In data set [1], this molecule registered an antagonist dissociation constant (Kb) of 0.39 µM.

The molecule `Cc1ccc(-c2cc(C(=O)NC(C)(C)C)cc(-c3ccnn3C(C)(C)C)c2)cc1` [Example 30, N-tert-Butyl-3-(2-tert-butyl-pyrazol-3-yl)-5-(4-methyl-phenyl)-benzamide] gave a melting point of 193 °C. The antagonist dissociation constant (Kb) in data set [1] came out at 0.37 µM.

For the molecule `COc1ccc(-c2cc(C(=O)NC(C)(C)C)cc(-c3ccnn3C(C)(C)C)c2)cc1` [Example 31, N-tert-Butyl-3-(2-tert-butyl-pyrazol-3-yl)-5-(4-methoxy-phenyl)-benzamide], the melting point came out at 173 °C. In data set [1], this molecule displayed a Kb of 0.25 µM.

`CC(C)(C)NC(=O)c1cc(-c2ccc(F)c(Cl)c2)cc(-c2ccnn2C(C)(C)C)c1` [Example 32, N-tert-Butyl-3-(2-tert-butyl-pyrazol-3-yl)-5-(3-chloro-4-fluoro-phenyl)-benzamide] showed a melting point of 175 °C. The molecule also gave a Kb in data set [1] of 0.41 µM.

Consider `CC(C)(C)NC(=O)c1cc(-c2ccc(Cl)c(F)c2)cc(-c2ccnn2C(C)(C)C)c1` [Example 33, N-tert-Butyl-3-(2-tert-butyl-pyrazol-3-yl)-5-(4-chloro-3-fluoro-phenyl)-benzamide], for which the melting point stood at 225 °C. The molecule also came in with a Kb in data set [1] of 0.29 µM.

`CC(C)c1ccc(-c2cc(C(=O)NC(C)(C)C)cc(-c3ccnn3C(C)(C)C)c2)cc1` [Example 34, N-tert-Butyl-3-(2-tert-butyl-pyrazol-3-yl)-5-(4-propan-2-yl-phenyl)-benzamide]: the melting point is 209.5 °C. The molecule also showed a Kb in data set [1] of 0.6 µM.

`CC(C)(NC(=O)c1cc(-c2ccc(Cl)cc2)cc(-c2ccnn2C(C)(C)C)c1)C1CC1` [Example 35, 3-(2-tert-Butyl-pyrazol-3-yl)-5-(4-chlorophenyl)-N-(2-cyclopropyl-propan-2-yl)-benzamide] gave a melting point of 166 °C. For the same molecule, the antagonist dissociation constant (Kb) in data set [1] was determined as 0.92 µM.

Consider `CC(C)(C)NC(=O)c1cc(-c2ccc(F)c(F)c2)cc(-c2ccnn2C(C)(C)C)c1` [Example 36, N-tert-Butyl-3-(2-tert-butyl-pyrazol-3-yl)-5-(3,4-difluorophenyl)-benzamide], for which the melting point is 197.5 °C. In data set [1], this molecule displayed an antagonist dissociation constant (Kb) of 0.44 µM.

For the molecule `CC(C)(C)NC(=O)c1cc(-c2ccc(C3CC3)cc2)cc(-c2ccnn2C(C)(C)C)c1` [Example 37, N-tert-Butyl-3-(2-tert-butyl-pyrazol-3-yl)-5-(4-cyclopropyl-phenyl)-benzamide], the melting point is 198.5 °C. The Kb in data set [1] was determined as 1.13 µM.

`CC(C)(C)NC(=O)c1cc(-c2ccc(C#N)cc2)cc(-c2ccnn2C(C)(C)C)c1` [Example 38, N-tert-Butyl-3-(2-tert-butyl-pyrazol-3-yl)-5-(4-cyano-phenyl)-benzamide] registered a melting point of 201.5 °C. In data set [1], this molecule displayed a Kb of 0.24 µM.

In the case of `CC(C)n1nccc1-c1cc(C(=O)NC(C)(C)CO)cc(-c2ccc(Cl)cc2)c1` [Example 39, 3-(4-Chlorophenyl)-N-(1-hydroxy-2-methyl-propan-2-yl)-5-(2-propan-2-yl-pyrazol-3-yl)-benzamide], the melting point worked out at 80.5 °C. The molecule further displayed a Kb in data set [1] of 0.27 µM.

For `CC(C)n1nccc1-c1cc(C(=O)NC(C)(C)C(F)(F)F)cc(-c2ccc(Cl)cc2)c1` [Example 40, 3-(4-Chlorophenyl)-5-(2-propan-2-yl-pyrazol-3-yl)-N-(1,1,1-trifluoro-2-methyl-propan-2-yl)-benzamide], the melting point was 77.5 °C. In data set [1], this molecule gave an antagonist equilibrium constant (Kb) of 0.62 µM.

Molecule `CC(C)(CO)NC(=O)c1cc(-c2ccc(Cl)cc2)cc(-c2ccnn2C(C)(C)C)c1` [Example 41, 3-(2-tert-Butyl-pyrazol-3-yl)-5-(4-chlorophenyl)-N-(1-hydroxy-2-methylpropan-2-yl)-benzamide] yielded a melting point of 83 °C. For the same molecule, the antagonist dissociation constant (Kb) in data set [1] was determined as 0.26 µM.

`CC(C)(C)n1nccc1-c1cc(C(=O)NC(C)(C)C(F)(F)F)cc(-c2ccc(Cl)cc2)c1` [Example 42, 3-(2-tert-Butylpyrazol-3-yl)-5-(4-chlorophenyl)-N-(1,1,1-trifluoro-2-methyl-propan-2-yl)-benzamide] yielded a melting point of 81 °C. The molecule also returned a Kb in data set [1] of 0.89 µM.

Consider `CC(C)(C)NC(=O)c1cc(-c2ccc(C(F)(F)F)cc2)cc(-c2ccnn2C2CC2)c1` [Example 43, N-tert-Butyl-3-(2-cyclopropyl-pyrazol-3-yl)-5-[4-(trifluoromethyl)-phenyl]-benzamide], for which the melting point stood at 72 °C. Further, the Kb in data set [1] amounted to 0.32 µM.

`CC(C)(C)NC(=O)c1cc(-c2ccc(C(F)(F)F)cc2)cc(-c2ccnn2CC2CC2)c1` [Example 44, N-tert-Butyl-3-[2-(cyclopropylmethyl)-pyrazol-3-yl]-5-[4-(trifluoromethyl)-phenyl]-benzamide] registered a melting point of 69 °C. Moreover, the antagonist dissociation constant (Kb) in data set [1] was 0.4 µM.

`CC(C)(C)NC(=O)c1cc(-c2ccc(Cl)cc2)cc(-c2ccnn2C2CC2)c1` [Example 45, N-tert-Butyl-3-(4-chlorophenyl)-5-(2-cyclopropyl-pyrazol-3-yl)-benzamide] displayed a melting point of 72 °C. Further, in data set [1], the antagonist dissociation constant (Kb) was 0.26 µM.

With `CC(C)(C)NC(=O)c1cc(-c2ccc(F)cc2)cc(-c2ccnn2CC2CC2)c1` [Example 46, N-tert-Butyl-3-[2-(cyclopropylmethyl)-pyrazol-3-yl]-5-(4-fluorophenyl)-benzamide], the melting point is 188 °C. This molecule showed an antagonist equilibrium constant (Kb) in data set [1] of 0.28 µM.

`CCn1nccc1-c1cc(C(=O)NC(C)(C)C)cc(-c2ccc(F)cc2)c1` [Example 47, N-tert-Butyl-3-(2-ethyl-pyrazol-3-yl)-5-(4-fluorophenyl)-benzamide]: the melting point is 162 °C. The antagonist dissociation constant (Kb) in data set [1] is 0.11 µM.

Regarding `CCn1nccc1-c1cc(C(=O)NC(C)(C)C)cc(-c2ccc(C(F)(F)F)cc2)c1` [Example 48, N-tert-Butyl-3-(2-ethyl-pyrazol-3-yl)-5-[4-(trifluoromethyl)-phenyl]-benzamide], the melting point stood at 70 °C. Also, the Kb in data set [1] was 0.29 µM.

The record behind these values is patent publication US10457644B2, “Pyrazol compounds as EAAT3 inhibitors” (Hoffmann-La Roche Inc., priority 2016, dated 2019).
